Experimental data reported in the METLIN SMRT retention time set (Domingo-Almenara et al. 2019).

Experiment: gradient 5% acetonitrile 3 min, to 50% in 2 min, to 85% in 15 min, held 3 min, 100 µL/min
Conditions: column: Zorbax Extend-C18 2.1 x 50 mm; eluents: water / acetonitrile, 0.1% formic acid
Summary of the method: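 Values are retention times taken from adduct peaks that software picked and an analyst inspected. The pure standards were run as mixtures of ~100 molecules on HPLC linked to a quadrupole time-of-flight mass spectrometer, in positive and negative ionization mode. A Zorbax Extend-C18 column (2.1 × 50 mm, 1.8 μm) was used at 100 μL/min with water and acetonitrile, each including 0.1% formic acid.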

RP-LC retention time [s]	Compound
691	CC(C)CC(=O)NCC12CCC=C1N(C)C(=O)CC2 (centres undefined)
674	Cn1nc(C(=O)N2CCOCC2)c2c1CCN(C(=O)Nc1ccccc1Br)C2
588	Cc1cc(N2CCOCC2)n2nc(CN3CCN(c4ccccc4)CC3)nc2n1
1010	CCN(C(=O)Cn1nc(C(=O)N2CCCCC2)c2ccccc21)c1cccc(C)c1
1080	CC1=NS(=O)(=O)N(Cc2ccccc2)C=C1C(=O)OCc1ccc(F)cc1
588	CN1c2cc(C(=O)N3CCN(c4ccccn4)CC3)ccc2C(=O)N2CCCCC21 (centres undefined)
1270	Cc1ccc(-c2csc(NC(=O)COc3cc(C)cc(C)c3)n2)cc1
737	O=C(COc1ccccc1)N1CCC(c2noc(-c3ccncc3)n2)C1 (centres undefined)
668	CC(C)CCNC(=O)C1Cn2cccc2C(=O)N1C (centres undefined)
698	CC(C)CCC(=O)N1CCC2(CC1)CC(C)(O)CCO2 (centres undefined)
658	COc1ccc(N2CC(CNC(=O)Nc3c(F)cccc3F)CC2=O)cc1 (centres undefined)
1010	CCCNS(=O)(=O)c1ccc(Cl)c(-c2nnc(-c3ccccc3)o2)c1
648	O=C(c1sc2ncccc2c1-n1cccc1)N1CCN(Cc2ccccc2)CC1
694	CC(C)NC(=O)c1ccc(-c2nc3cc(NS(=O)(=O)CCc4ccccc4)ccc3n2C)cc1
705	CC(=O)NCCc1csc(C2CCCN(C(=O)C3(c4ccccc4)CC3)C2)n1 (centres undefined)
803	Cc1ccc(-c2nccn3cc(C(=O)NC4CC4)nc23)cc1
703	COc1ccc(C(=O)N2CC(C(=O)NC3CC3)C(c3ccc(OC)cc3OC)C2)cc1 (centres undefined)
1080	CC(C)Cc1nc(-c2ccccc2)oc1CC(=O)NCc1ccc(F)c(Cl)c1
970	CC1Oc2ccc(-c3csc(NC(=O)c4ccccc4)n3)cc2N(C)C1=O (centres undefined)
744	N#Cc1ccccc1NC(=O)C(=O)NCC1CCN(C(=O)c2ccccc2F)CC1
657	Nc1ccc2c3c(cccc13)C(=O)NC2=O
784	CCCC(=O)N1CCCC(COc2ccc(C(=O)NC(C)C)cc2)C1 (centres undefined)

RP-LC retention time [s]	Compound
1180	CCc1ccc(-c2ccc(SCC(=O)Nc3cc(Cl)ccc3OC)nn2)cc1
998	COCC(=O)N1CCc2c([nH]c3ccccc23)C1c1ccc(SC)cc1 (centres undefined)
714	COc1ccc(N2CCN(C(=O)CN3CCN(Cc4ccccc4)C3=O)CC2)cc1
821	O=C(NCc1cccs1)C1CCN(Cc2cc3ccccc3n2Cc2ccccc2Cl)CC1
845	CCn1c(=O)sc2cc(S(=O)(=O)N3CCC(C(=O)NCc4ccccc4)CC3)ccc21
817	Cc1cc(C)cc(NC(=O)N2CCC(n3cnc4ccc(Cl)cc4c3=O)CC2)c1
968	Cc1cccc(-n2c(=O)c3c(cc(C)n3C)n(CC(=O)Nc3ccc(C(F)(F)F)cc3)c2=O)c1
611	COc1ccc(-c2noc(Cn3ccnc3C)n2)cc1
1210	CC(C)c1cc(C(=O)Nc2ccc(F)c(Cl)c2)nc2ccnn12
1010	Cc1cc(C)c(NC(=O)C2CCN(S(=O)(=O)c3c(C)nn(-c4ccccc4)c3C)CC2)c(C)c1
671	O=C(Nc1ccc(F)cc1F)c1ccc(N2C(=O)CCC2=O)cc1
851	CCCCOc1ccc(NC(=O)Nc2ccc(N3CCCS3(=O)=O)cc2)cc1
601	Cc1ccc2cc(CCC(=O)NCCN3CCCCC3)c(=O)[nH]c2c1
641	O=C(N[C@H]1C[C@@H]2C[C@H]1N(C(=O)c1ccccc1OC(F)(F)F)C2)c1cccnc1
706	CCN1C(=O)C2CC3(CCN(C(=O)Nc4ccc5c(c4)OCCO5)CC3)CN2C1=O (centres undefined)
730	Cc1ccccc1CC(=O)NC(C(=O)Nc1nc2ccccc2[nH]1)C(C)C (centres undefined)
784	CN1C(=O)C(C)(C(=O)NC2CCCCC2)Oc2cccnc21 (centres undefined)
789	O=C(Cn1nc(C2CC2)cc1C(=O)N1CCCC1)Nc1ccc(F)c(F)c1
638	CCc1ccccc1NC(=O)Cn1c(N)nc(C(C)C)cc1=O
970	CC(C)Cn1cc(CCNC(=O)Nc2ccc(C(F)(F)F)cc2)c2cccnc21
692	O=C(NCc1cccnc1-c1ccccc1)c1cccc(Br)c1
697	CC(C)n1c(=O)sc2cc(S(=O)(=O)N3CCC(C(=O)Nc4cccc(C#N)c4)CC3)ccc21

RP-LC retention time [s]	Compound
952	COc1ccc(-c2noc(C3CCCN3C(=O)Nc3ccc(OC)cc3OC)n2)cc1 (centres undefined)
673	O=C(Cc1ccsc1)N1CCC(Nc2ncnc3c2CCC3)CC1
645	Cc1ccn2cc(C(=O)NCc3ccc(F)cc3)nc2c1
806	CCNC(=O)c1cnn(-c2cc(-c3nc(CC)no3)ccn2)c1C
976	COc1ccccc1/C=C/c1nc(-c2cccc(-c3ccn[nH]3)c2)no1
860	COC(=O)c1[nH]c2c(c1C)C(=O)CC(c1ccccc1)C2 (centres undefined)
548	O=C(NCCCN1CCCC1)c1ccc(CS(=O)Cc2ccccc2Cl)o1 (centres undefined)
780	COc1ccc(-c2nc3cc(C)ccn3c2NC(=O)COc2ccc(Cl)cc2Cl)cc1
944	Cc1cccc(Oc2nccn3c(=O)n(CC(=O)NCCCc4ccccc4)nc23)c1C
969	Cc1cccc(-c2nnc(SCC(=O)N3CCC(C)CC3)o2)c1
1050	CC(C)c1nn2c(S(=O)(=O)NC3CCCC3)c(C(C)C)nc2s1
705	Cc1ccc(C(=O)N2CCN(c3nnc4cccc(C)n34)CC2)cc1C
642	CC1(C(=O)NCc2ccc3c(c2)OCO3)CCCCC(=O)N1 (centres undefined)
782	O=C(NCc1ccccc1)NCC1Cn2cccc2C(=O)N1Cc1ccccc1 (centres undefined)
1050	CCCCc1nc(SCC(=O)Nc2nc(-c3ccc(Br)cc3)cs2)n[nH]1
982	O=C(Nc1cccc(C(F)(F)F)c1)c1cc2ncc(Br)cn2n1
696	O=C(c1ccco1)N1CCN=C1N1CCN(c2cccc(Cl)c2)CC1
1110	O=C(c1ccc(-c2nccnc2N2CCCC2)cc1)N1CCC(Cc2ccccc2)CC1
809	Cc1ccc(CCNC(=O)c2cc3n(n2)CC(C)(C(=O)NC2CCCC2)N(C)C3=O)cc1 (centres undefined)
677	CCOC(=O)Cc1cc(=O)oc2cc(O)ccc12
977	CCCNC(=O)C1=Cc2cc(Cl)cc(OC)c2OC=C1
714	O=C([C@@H]1C[C@H](F)CN1C(=O)COc1ccc(F)cc1)N1CCCCC1

RP-LC retention time [s]	Compound
772	Cc1noc(CNC(=O)C2CCN(C(=O)C(C)(C)Oc3ccc(Cl)cc3)CC2)n1
786	CC(C)CCNC(=O)C1(C)Cn2nc(C(=O)NCCc3c[nH]c4ccccc34)cc2C(=O)N1C (centres undefined)
880	CCOC(=O)c1cc2n(n1)CC(C)(C(=O)NCc1ccccc1)N(Cc1ccccc1)C2=O (centres undefined)
987	N#Cc1cccc(S(=O)(=O)N2CCc3nc(-c4ccccc4)ncc3C2)c1
1200	O=C(Nc1ccc(-c2nc(-c3ccc(F)cc3)no2)cc1)c1ccc(Br)o1
581	CC(=O)N1CCC2(CC1)OC(=O)C(C)=C2C(=O)NC1CCN(Cc2ccccc2)CC1
872	Cc1nc2cc(-c3noc(-c4ccc(Cl)cc4)n3)ccc2n(C)c1=O
906	CCOC(=O)c1cccc(NC(=O)NC2COc3ccc(OC)cc3C2)c1 (centres undefined)
852	CCCn1cc(CCNC(=O)c2cc(Cl)ccc2F)c2cccnc21
717	CS(=O)(=O)CCNCc1nc(-c2ccc3ncnc(Nc4ccc(OCc5cccc(F)c5)c(Cl)c4)c3c2)cs1
731	Cc1ccc(-n2nc3c(=O)n(CCCC(=O)NCC4CCCO4)nc(C)c3c2C)cc1 (centres undefined)
709	O=C(Cn1ccc2ccc(N3CCCCCC3)nc21)N1CCC(N2CCCCC2)CC1
651	CCCCC(=O)N1CC(c2nc(-c3cccnc3)no2)C2(CCOCC2)C1 (centres undefined)
587	COc1ccc(CCNCc2ccc3c(c2)n(C)c(=O)n3C)cc1OC
643	CC1CCCCN1CCCNC(=O)c1cc(S(=O)(=O)N2CCCC2)ccc1Cl (centres undefined)
894	O=C(NCc1cccnc1-c1ccc(F)cc1)c1cccs1
1180	CCOc1nc2ccccc2nc1N1CCCC(C(=O)Nc2ccc(OC)cc2OC)C1 (centres undefined)
797	Cc1ccc(-c2nnc(CC(=O)NC3CCCC3)o2)cc1
968	Cc1ccc(S(=O)(=O)N2CC(=O)N(c3ccc(F)cc3)C(C)(C(=O)NCc3ccccc3)C2)cc1 (centres undefined)
579	O=C(NC1CCN(Cc2ccccc2)CC1)c1ccc2c(=O)n3c(nc2c1)CCCC3
599	CC(=O)Nc1ccc(S(=O)(=O)NCc2nc(C)no2)cc1

Compound	RP-LC retention time [s]
COc1ccc2c(c1)C1(CCN(S(=O)(=O)c3ccc4c(c3)oc(=O)n4C)C1)C(=O)N2 (centres undefined)	746
O=C(c1ccoc1)N1[C@H]2CC[C@@H]1c1cnc(-c3ccccc3)nc1C2	837
